Entries after “also recorded” stand apart in the source; their conditions may differ. One block for each substance: values may come before it.
Experiments:
[1] = test system: Rat glioblastoma cell lines C6; experiment: Cell growth of glioblastoma cell line C6; type: cell-based; details: cell growth rate from number of live cells
Procedure: (§1) Rat glioblastoma cell lines C6 (A) and human non-small cell lung cancer cell line H841 (B) were grown in the proper medium and treated with different concentration of drug candidate AG-1031 (P) and AG-1503 (#3). Cell growth rate was calculated based on the number of live cells as compared to concentration in M of selected small molecules of the invention (see FIGS. 6A and 6B).

[2] = test system: A549 xenograft (NSCLC tumor); experiment: A549 xenograft mice, AG-1031 treatment after inoculation; type: in vivo; details: 20-40 μg/mice IP every other day, 28 days, after tumor formation
Procedure: Mice were treated with AG-1031 (20-40 μg/mice) every other day via IP injection after A549 inoculate to the SHO mice treatment and followed for up to 28 days.
Tumor volume was measured during treatment of NSCLC cells with AG-1031 over 28 days.

[3] = test system: human non-small cell lung cancer cell line H841; experiment: Cell growth of NSCLC cell lines; type: cell-based; details: cell growth rate from number of live cells
Procedure: as §1

[4] = biological target: PC4 protein (Homo sapiens, UniProt P53999); experiment: PC4-DNA binding interference; details: for PC4 inhibition: high-throughput screen platform
Procedure: A number of small molecules were incubated with PC4 protein and DNA binding assessed.

[5] = test system: A549 xenograft (NSCLC formation); experiment: A549 xenograft mice, AG-1031 pre-injection (vaccine); type: in vivo
Procedure: AG-1031 was injected into mice two weeks before injection of tumor cell (see FIG. 9).
Tumor volume was measured for 35 days after administration of AG-1031 to xenograft mice.
IP inject with AG-1031 40 μg/mice, once a week (×2) before A549 cells inoculate to the SHO mice. Assessment of AG-1031 effect on tumor growth in A549 xenograft mice.

[6] = test system: glioma (glioblastoma cell line C6); experiment: C6 glioma xenograft model, tumor growth, behaviour and memory; type: in vivo, rats; details: for ability of new object recognition: rat, in vivo; for recovery of memory loss and loss of other activities: xenograft model of C6 cell line

PC4 inhibition [4]: strong PC4 inhibitor
Substance: 9-methyl (I) and 13-methyl (II) trans-(+)-18-ethenyl-4,4a-dihydro-3,4-bis(methoxycarbonyl)4a,8,14,19-tetramethyl-23H, 25H-benzo[b]porphine-9,13-dipropanoate [AG-1031]
inhibition of growth of glioma cell line C6 [1]: inhibition of rat glioblastoma cell line C6
growth of NSCLC tumor [2]: inhibits growth of NSCLC tumor cells; also recorded: inhibiting tumor growth
inhibition of growth of NSCLC cell lines [3]: inhibition of human non-small cell lung cancer cell line H841; also recorded: inhibited non-small cell lung cancer (NSCLC) cell growth
interference of PC4-DNA binding ([4]; small molecules incubated with PC4 protein, in vitro): significant interference of PC4-DNA binding; also recorded: specifically inhibits PC4 activity by blocking its double stranded DNA binding ability
tumor volume ([5]; AG-1031 injected two weeks before tumor cells, control 302.9 mm^3): 69.0 mm^3
tumor volumes ([5]; measured for 35 days after administration): substantially reduces tumor volumes
prevention of tumor formation ([5]; pre-injection of AG-1031 before tumor cells): prevents NSCLC formation in vivo; also recorded: effectively prevented tumor formation
ability of new object recognition [6]: showed efficacy to improve ability of new object recognition
glioma growth ([6]; xenograft model from C6 cell line): significantly inhibited glioma growth
recovery of memory loss and loss of other activities [6]: recovery of memory loss and other activity loss

PC4 inhibition [4]: strong PC4 inhibitor
Substance: Coproporphyrin III tetramethyl ester [AG-1503]
inhibition of growth of glioma cell line C6 [1]: inhibition of rat glioblastoma cell line C6; also recorded: specific inhibitory activity on growth of glioma cell line C6
inhibition of growth of NSCLC cell lines [3]: inhibition of human non-small cell lung cancer cell line H841; also recorded: not significant inhibitory activity on growth of NSCLC cell lines
ability of new object recognition [6]: showed efficacy to improve ability of new object recognition
open-field anxiety and activity ([6]; rats with glioma): improvement of anxiety and activity
recovery of memory loss and loss of other activities [6]: better activity for recovering memory loss and loss of other activities
